Values quoted from earlier work as cited in US6656473B2, “Tryptophan source from plants and uses thereof” (priority 2000, dated 2003).

Biological target: plasma albumin (Homo sapiens, UniProt P02768)
Details: after absorption

plasma albumin, sequence (P02768 25-609): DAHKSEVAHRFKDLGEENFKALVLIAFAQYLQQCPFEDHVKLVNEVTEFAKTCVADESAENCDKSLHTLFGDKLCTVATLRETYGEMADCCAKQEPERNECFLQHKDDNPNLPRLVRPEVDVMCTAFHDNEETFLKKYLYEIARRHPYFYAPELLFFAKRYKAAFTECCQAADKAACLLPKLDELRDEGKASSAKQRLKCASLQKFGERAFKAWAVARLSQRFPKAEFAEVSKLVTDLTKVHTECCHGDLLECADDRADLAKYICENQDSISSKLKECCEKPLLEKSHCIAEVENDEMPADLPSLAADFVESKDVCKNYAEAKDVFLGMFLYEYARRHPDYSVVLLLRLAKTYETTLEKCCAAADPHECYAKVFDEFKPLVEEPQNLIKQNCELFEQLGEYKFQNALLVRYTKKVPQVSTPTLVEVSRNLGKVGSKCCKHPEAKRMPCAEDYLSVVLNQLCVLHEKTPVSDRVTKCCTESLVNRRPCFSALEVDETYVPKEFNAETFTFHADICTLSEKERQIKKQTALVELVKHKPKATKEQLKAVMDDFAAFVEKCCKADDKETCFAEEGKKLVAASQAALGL

N[C@@H](Cc1c[nH]c2ccccc12)C(=O)O [tryptophan]
Share circulating as free tryptophan: 20%
Share circulating in the blood bound to plasma albumin: approximately 80%
